Measurements from patent US12344610B2, “APOL1 inhibitors and methods of use” (Maze Therapeutics, Inc., priority 2022, dated 2025).

How the values were obtained:
Assay type in all cases: cell-based
[1] = system: HEK293 cells overexpressing APOL1 G2; test: APOL1 G2 HEK293 cell rescue assay (reversal of cell death caused by overexpression of APOL1); conditions: geometric mean of at least 2 assay runs, † = single assay run
How it was run: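 EC50 is the half-maximal effective concentration for reversing cell death driven by APOL1 G2 overexpression in HEK293 cells. Reported as geometric mean of at least 2 runs on separate days, each run averaging duplicate wells per plate; some values from a single run.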

[2] = system: HEK293 clonal cell line overexpressing APOL1 G1; test: APOL1 G1 HEK293 cell rescue assay (Example B3); conditions: geometric mean of at least 2 runs, † = single run, ¥ = concentration at 50% rescue estimated (no sigmoidal curve)
How it was run: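 HEK293 clonal line overexpressing APOL1 G1; EC50 is half-maximal reversal of APOL1-induced cell death. Values are the geometric mean of ≥2 runs on separate days, each run the average of duplicate wells. Where no sigmoidal curve could be fitted, the concentration giving 50% rescue was estimated.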

[3] = molecular target: T1, APOL1 G2 (Homo sapiens, UniProt O14791, DEL388-389); test: APOL1-mediated calcium transport (calcium influx) assay, HEK T-REx/GCaMP6f/APOL1 G2 K6.3 cells, FLIPR TETRA; conditions: prevention of calcium influx; geometric mean of at least 2 assay runs; † = average of a technical replicate from a single assay run
T1 construct: expressed in transfected cells; host or cells: HEK293 T-REx clonal line stably expressing GCaMP6f (HEK T-REx/GCaMP6f/APOL1 G2 K6.3), doxycycline induced
T1 sequence (O14791 with tags, fused parts or gaps DEL388-389): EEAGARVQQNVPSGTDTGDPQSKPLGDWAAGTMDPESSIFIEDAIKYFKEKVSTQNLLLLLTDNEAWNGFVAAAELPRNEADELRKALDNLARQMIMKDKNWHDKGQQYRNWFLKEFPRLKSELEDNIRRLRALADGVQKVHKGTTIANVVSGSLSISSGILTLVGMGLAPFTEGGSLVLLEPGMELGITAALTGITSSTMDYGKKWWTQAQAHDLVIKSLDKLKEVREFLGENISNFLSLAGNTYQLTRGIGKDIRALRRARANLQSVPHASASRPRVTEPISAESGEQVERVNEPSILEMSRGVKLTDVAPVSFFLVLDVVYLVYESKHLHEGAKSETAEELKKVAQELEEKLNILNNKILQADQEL
Procedure: A HEK293 clonal cell line was generated to stably express GCaMP6f, a genetically encoded calcium indicator, and inducibly express APOL1 G2 (HEK T-REx/GCaMP6f/APOL1 G2 K6.3). Cells were maintained in the following standard complete medium: DMEM with 4.5 g/L glucose and sodium pyruvate (BioWhittaker, Lonza, BE12-614F), supplemented with 10% FBS Performance Plus (Gibco, 16000044), 1% penicillin-streptomycin (BioWhittaker, DE17-602E), 2 mM ultraglutamine-1 (BioWhittaker cat. BE 17-605/U1), 50 μg/mL Zeocin (InvivoGen, ant-zn), 2.5 μg/mL Blasticidin (InvivoGen, ant-bl-5), and 25 μg/mL Hygromycin (InvivoGen, ant-hg). Standard propagation conditions consisted of plating 9×10^6, 4×10^6, 2×10^6 cells in a T225 flasks to be processed after 2, 3, or 4 days, respectively.
A source plate was generated containing 20 serially diluted compounds in DMSO (duplicate 8-point dose response). Next, 0.8 μL of compounds were transferred from the source plate to a destination plate prefilled with 79.2 μL of Ca^2+ free Tyrode's buffer (130 mM NaCl, 5 mM KCl, 1 mM MgCl2, 5 mM NaHCO3, 20 mM HEPES at pH 7.4). The destination plate was placed on a plate shaker (5 seconds at 2000 rpm) to mix. […] All transfer and mixing steps were conducted with an CyBi®-Well dispenser.
Cells were split by gently washing with DPBS (Euroclone, ECB4004L), followed by a 5-minute incubation (humidified, 37° C. with 5% CO2) with trypsin-EDTA solution (Euroclone, ECB3052D). Detached cells were diluted with standard complete medium without selective agents, counted, and plated in a 384 MTP microplate (GR4332CPL, Twin Helix) (10,000 cells/well in 25 μl/well) using a MATRIX WellMate dispenser. Plates were placed into a humidified incubator (37° C. with 5% CO2) overnight. The following day, 20 μL of doxycycline (Sigma, D9891) at 20 ng/mL in standard complete medium was added to cells with a CyBi® Drop dispenser to induce APOL1 G2 expression. After a 6-hour incubation (humidified, 37° C. with 5% CO2), cells were washed 3 times with Ca^2+ free Tyrode's Buffer (130 mM NaCl, 5 mM KCl, 1 mM MgCl2, 5 mM NaHCO3, 20 mM HEPES at pH 7.4) using a BIOTEK Microplate washer, such that 10 μL of buffer remained in each well after the final wash. Assay plates were then stored at room temperature for 10 minutes. Next, 10 μL of diluted compounds were transferred to the assay plate from the 2× compound plate using a CyBi®-Well dispenser. Compound incubation was then carried out at room temperature for 10 minutes. The assay plate was transferred to the FLIPR^TETRA and 20 μL of 10 mM Ca^2+ (final concentration=5 mM) Tyrode's buffer was injected.
Unless otherwise specified, AC50 and values are reported as the geometric mean of at least 2 assay runs on separate days. Each run represents the average of a technical replicate, where each compound was assayed twice in the same plate. A superscript t symbol indicates a value from the average of a technical replicate from a single assay run, where each compound was assayed twice in the same plate.
The AC50 values in Table 39 below reflect the compound's ability to prevent calcium influx by inhibiting APOL1. […] Compounds in Table 39 are referred to by the corresponding Compound Number in Table 1, which is also referred to in the synthetic examples. When one or more of the numbered compounds are identified by stereochemistry (for example, (R)- or (S)-), the specific stereoisomer for which data is provided in Table 39 may be identified by the elution order of such compound as described in the synthetic examples. For example, Compounds 39 and 40 are associated with Step 5 of Example 13, where Compound 39 is the first eluting enantiomer, and Compound 40 is the second eluting enantiomer in the chiral separation of Compound 38. For Table 39 below, n/a represents “not available”.

[4] = HEK293 clonal line overexpressing APOL1 G1
[5] = Homo sapiens, HEK293, HEK293 overexpressing APOL1 G2
[6] = Homo sapiens, HEK293, HEK293 clonal line overexpressing APOL1 G1

Structure (SMILES)	EC50 ([1]; HEK293 overexpressing APOL1 G2) [nM]	EC50 [2, 4] [nM]	AC50 [3] [nM]	EC50 [1, 5] [nM]	EC50 [2, 6] [nM]
CC(COc1ccc(S(C)(=O)=O)cc1)N1CCC2(CC1)C(=O)N(C1CC(O)C1)c1ccc(Cl)cc12 (single isomer, unassigned) [Compound 208, 5-chloro-1′-[(2R) or (2S)-1-(4-methanesulfonylphenoxy)propan-2-yl]-1-[(cis) or (trans)-3-hydroxycyclobutyl]-1,2-dihydrospiro[indole-3,4′-piperidin]-2-one]	238	554	1550	–	–
CC(COc1ccc(S(C)(=O)=O)cc1)N1CCC2(CC1)C(=O)N(C1CC(O)C1)c1ccc(Cl)cc12 (single isomer, unassigned) [Compound 209, 5-chloro-1′-[(2R) or (2S)-1-(4-methanesulfonylphenoxy)propan-2-yl]-1-[(trans) or (cis)-3-hydroxycyclobutyl]-1,2-dihydrospiro[indole-3,4′-piperidin]-2-one]	3070	> 2840	1240	–	–
C[C@@H](COc1cc(F)c(S(C)(=O)=O)c(F)c1)N1CCC2(CC1)C(=O)Nc1ccc(C#N)cc12 (single isomer, unassigned) [Compound 213]	–	–	1120	189	497
CS(=O)(=O)c1ccc(OCCN2CCC3(CC2)C(=O)Nc2ccc(C#N)cc23)cc1C(F)CF (single isomer, unassigned) [Compound 222, 1′-(2-{3-[(1R or 1S)-1,2-difluoroethyl]-4-methanesulfonyl-phenoxy}ethyl)-2-oxo-1,2-dihydrospiro[in-dole-3,4′-piperidine]-5-carbonitrile]	141	605	783	–	–
CC(COc1ccc(C2(S(C)(=O)=O)COC2)cc1)N1CCC2(CC1)C(=O)Nc1ccc(C#N)cc12 (single isomer, unassigned) [Compound 264, (R) or (S)-1′-{1-[4-(3-methanesulfonyloxetan-3-yl)phenoxy]propan-2-yl}-2-oxo-1,2-dihydrospiro[indole-3,4′-piperidine]-5-carbonitrile]	2250	~10000	1950	–	–
C[C@]1(O)C[C@@H](n2ncc3cc(OCCN4CCC5(CC4)C(=O)Nc4ccc(C#N)cc45)cnc32)C1 (single isomer, unassigned) [Compound 437, 2-oxo-1′-[2-({1-[(cis)-3-hydroxy-3-methylcyclobutyl]-1H-pyrazolo[3,4-b]pyridin-5-yl}oxy)ethyl]-1,2-dihydrospiro[indole-3,4′-piperidine]-5-carbonitrile]	–	–	612	112	186
CS(=O)(=O)c1ccc(OCCN2CCC3(CC2)C(=O)Nc2c(Cl)cc(Cl)cc23)cc1 [Compound 7, 5,7-dichloro-1′-[2-(4-methanesulfonylphenoxy)ethyl]-1,2-dihydrospiro[indole-3,4′-piperidin]-2-one]	–	–	601	279	764
CS(=O)(=O)c1ccc(OCCN2CCC3(CC2)C(=O)Nc2c(Cl)cc(C#N)cc23)cc1 [Compound 8, 7-chloro-1′-[2-(4-methanesulfonylphenoxy)ethyl]-2-oxo-1,2-dihydrospiro[indole-3,4′-piperidine]-5-carbonitrile]	–	–	833	598	1440
CS(=O)(=O)c1ccc(OCCN2CCC3(CC2)C(=O)N([C@H]2C[C@@H](O)C2)c2ccccc23)cc1 [Compound 19, 1′-[2-(4-methanesulfonylphenoxy)ethyl]-1-[(cis)-3-hydroxycyclobutyl]-1,2-dihydrospiro[indole-3,4′-piperidin]-2-one]	–	–	481	794	4810
COCCN1C(=O)C2(CCN(CCOc3ccc(S(C)(=O)=O)cc3)CC2)c2ccccc21 [Compound 21, 1′-[2-(4-methanesulfonylphenoxy)ethyl]-1-(2-methoxyethyl)-1,2-dihydrospiro[indole-3,4′-piperidin]-2-one]	–	–	< 213	1270	> 14400
CS(=O)(=O)c1ccc(OCCN2CCC3(CC2)C(=O)N(C2COC2)c2ccc(Cl)cc23)cc1 [Compound 22, 5-chloro-1′-(2-(4-(methylsulfonyl)phenoxy)ethyl)-1-(oxetan-3-yl)spiro[indoline-3,4′-piperidin]-2-one]	–	–	306	232	580
CC(COc1ccc(S(C)(=O)=O)cc1)N1CCC2(CC1)C(=O)Nc1ccccc12 (stereo not drawn) [Compound 28, 1′-(1-(4-(methylsulfonyl)phenoxy)propan-2-yl)spiro[indoline-3,4′-piperidin]-2-one]	–	–	< 434	799	655
CN1C(=O)C2(CCN(CCOc3ccc4ncn(C)c(=O)c4c3)CC2)c2ccccc21 [Compound 29, 1-methyl-1′-{2-[(3-methyl-4-oxo-3,4-dihydroquinazolin-6-yl)oxy]ethyl}-1,2-dihydrospiro[indole-3,4′-piperidin]-2-one]	–	–	586	1420	5560
CN1Cc2cc(OCCN3CCC4(CC3)C(=O)N(C)c3ccccc34)ccc2C1=O [Compound 30, 1-methyl-1′-{2-[(2-methyl-1-oxo-2,3-dihydro-1H-isoindol-5-yl)oxy]ethyl}-1,2-dihydrospiro[indole-3,4′-piperidin]-2-one]	–	–	409	1480	> 22500
CN1C(=O)C2(CCN(CCOc3ccc(-c4cnn(C)c4)cc3)CC2)c2ccccc21 [Compound 31, 1-methyl-1′-{2-[4-(1-methyl-1H-pyrazol-4-yl)phenoxy]ethyl}-1,2-dihydrospiro[indole-3,4′-piperidin]-2-one]	–	–	370	810	1570
